According to publication PMC10584170, “Machine learning-based phenotypic imaging to characterise the targetable biology of Plasmodium falciparum male gametocytes for the development of transmission-blocking antimalarials” (PLOS Pathogens, 2023):
Like-named read-outs stand apart in the source and are kept apart here.

Tests used:
HepG2 cells = test: HepG2 cytotoxicity counter-screen; details: cytotoxic activity against HepG2 cells
[1] = tested on: P. falciparum male gametocytes; test: P. falciparum Dual Gamete Formation Assay (PfDGFA), male readout (exflagellation); assay type: cell-based, Plasmodium falciparum NF54; details: for HitlevelM: number of replicates with >50% inhibition in the male readout; for Selectivity Ratio M: HepG2 Tox50 versus male IC50; for IC50: PfDGFA, 24 h incubation with gametocytes before induction, exflagellation readout, read-out: Male IC50
Method in brief: (§1)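 Read-outs are automated image counts of exflagellation centres (brightfield, 10 frames over 1 s) and Pfs25-positive female gametes (Cy3 fluorescence).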

[2] = tested on: P. falciparum female gametocytes; test: P. falciparum Dual Gamete Formation Assay (PfDGFA), female readout (Pfs25-positive female gametes); assay type: cell-based, Plasmodium falciparum NF54; details: for HitlevelF: number of replicates with >50% inhibition in the female readout; for Selectivity ratio F: HepG2 Tox50 versus female IC50; for IC50: PfDGFA, 24 h incubation with gametocytes before induction, female gamete readout, read-out: Female IC50
Method in brief: as §1

[3] = Plasmodium falciparum, 2µM, 24h preincubation with gametocytes, average of replicates, read-out: Average inhibition male (%)
[4] = Plasmodium falciparum, 2µM, 24h preincubation with gametocytes, replicate R1, read-out: % inhibition male (individual replicates) R1
[5] = Plasmodium falciparum, 2µM, 24h preincubation with gametocytes, replicate R2, read-out: % inhibition male (individual replicates) R2
[6] = Plasmodium falciparum, 2µM, 24h preincubation with gametocytes, replicate R3, read-out: % inhibition male (individual replicates) R3
[7] = Plasmodium falciparum, 2µM, 24h preincubation with gametocytes, replicate R4, read-out: % inhibition male (individual replicates) R4
[8] = Plasmodium falciparum, 2µM, 24h preincubation with gametocytes, average of replicates, read-out: Average inhibition female (%)
[9] = Plasmodium falciparum, 2µM, 24h preincubation with gametocytes, replicate R1, read-out: % inhibition female (individual replicates) R1
[10] = Plasmodium falciparum, 2µM, 24h preincubation with gametocytes, replicate R2, read-out: % inhibition female (individual replicates) R2
[11] = Plasmodium falciparum, 2µM, 24h preincubation with gametocytes, replicate R3, read-out: % inhibition female (individual replicates) R3
[12] = Plasmodium falciparum, 2µM, 24h preincubation with gametocytes, replicate R4, read-out: % inhibition female (individual replicates) R4
[13] = PfDGFA at 2µM, 24h preincubation with gametocytes, average of replicates
[14] = PfDGFA at 2µM, 24h preincubation with gametocytes, replicate R1
[15] = PfDGFA at 2µM, 24h preincubation with gametocytes, replicate R4
[16] = 2µM, 24h preincubation with gametocytes, average of replicates
[17] = 2µM, 24h preincubation with gametocytes, replicate R1
[18] = 2µM, 24h preincubation with gametocytes, replicate R3
[19] = 2µM, 24h preincubation with gametocytes, replicate R4

Structure (SMILES)	IC50 ([1]; Plasmodium falciparum)	IC50 ([2]; Plasmodium falciparum)	Tox50 (HepG2 cells)	Selectivity Ratio M [1]	Selectivity ratio F [2]	inhibition at 2 µM [1, 3]	inhibition at 2 µM [1, 4]	inhibition at 2 µM [1, 5]	inhibition at 2 µM [1, 7]	inhibition at 2 µM [2, 8]	IC50 [1]	Average inhibition male (%) [1, 16]	% inhibition male (individual replicates) R1 [1, 17]	% inhibition male (individual replicates) R3 [1, 18]	% inhibition male (individual replicates) R4 [1, 19]	Average inhibition female (%) [2, 16]	% inhibition female (individual replicates) R1 [2, 17]	% inhibition female (individual replicates) R3 [2, 18]	% inhibition female (individual replicates) R4 [2, 19]	IC50 [2]	further results
CC(C)(CNC(=O)[C@H]1CCCCN1)c1nc(-c2ccc(Cl)c(O)c2)c(-c2ccncc2)[nH]1.Cl [TCMDC-141070]	1630 nM	1020 nM	52.33 µM	32.01	51.37																HitlevelM ([1]; 2µM, 24h preincubation): 1; inhibition at 2 µM ([1]; Plasmodium falciparum, 2µM, 24h preincubation with gametocytes prior to induction of gametogenesis, average of replicates, read-out: Average inhibition male (%)): 20.5%; inhibition at 2 µM ([1]; Plasmodium falciparum, 2µM, 24h preincubation with gametocytes prior to induction of gametogenesis, replicate R1, read-out: % inhibition male (individual replicates) R1): -8.8%; inhibition at 2 µM ([1]; Plasmodium falciparum, 2µM, 24h preincubation with gametocytes prior to induction of gametogenesis, replicate R2, read-out: % inhibition male (individual replicates) R2): -11.5%; inhibition at 2 µM ([1]; Plasmodium falciparum, 2µM, 24h preincubation with gametocytes prior to induction of gametogenesis, replicate R3, read-out: % inhibition male (individual replicates) R3): 48.5%; inhibition at 2 µM ([1]; Plasmodium falciparum, 2µM, 24h preincubation with gametocytes prior to induction of gametogenesis, replicate R4, read-out: % inhibition male (individual replicates) R4): 54%; HitlevelF ([2]; 2µM, 24h preincubation): 4; inhibition at 2 µM ([2]; Plasmodium falciparum, 2µM, 24h preincubation with gametocytes prior to induction of gametogenesis, average of replicates, read-out: Average inhibition female (%)): 83.6%; inhibition at 2 µM ([2]; Plasmodium falciparum, 2µM, 24h preincubation with gametocytes prior to induction of gametogenesis, replicate R1, read-out: % inhibition female (individual replicates) R1): 71.8%; inhibition at 2 µM ([2]; Plasmodium falciparum, 2µM, 24h preincubation with gametocytes prior to induction of gametogenesis, replicate R2, read-out: % inhibition female (individual replicates) R2): 79.1%; inhibition at 2 µM ([2]; Plasmodium falciparum, 2µM, 24h preincubation with gametocytes prior to induction of gametogenesis, replicate R3, read-out: % inhibition female (individual replicates) R3): 95.8%; inhibition at 2 µM ([2]; Plasmodium falciparum, 2µM, 24h preincubation with gametocytes prior to induction of gametogenesis, replicate R4, read-out: % inhibition female (individual replicates) R4): 87.7%
CNC(=O)c1cnc(Nc2ccc(N3CCN(C)CC3)cc2)nc1Nc1ccccc1OC.O=C(O)C(F)(F)F [TCMDC-141382]	1200 nM	> 10000 nM	35.63 µM	29.58	3.56																inhibition at 2 µM ([1]; Plasmodium falciparum, PfDGFA at 2µM, 24h preincubation with gametocytes, average of replicates, read-out: Average inhibition male (%)): 82.8%; inhibition at 2 µM ([1]; Plasmodium falciparum, PfDGFA at 2µM, 24h preincubation with gametocytes, replicate R1, read-out: % inhibition male (individual replicates) R1): 83.2%; inhibition at 2 µM ([1]; Plasmodium falciparum, PfDGFA at 2µM, 24h preincubation with gametocytes, replicate R2, read-out: % inhibition male (individual replicates) R2): 85.9%; inhibition at 2 µM ([1]; Plasmodium falciparum, PfDGFA at 2µM, 24h preincubation with gametocytes, replicate R3, read-out: % inhibition male (individual replicates) R3): 82.1%; inhibition at 2 µM ([1]; Plasmodium falciparum, PfDGFA at 2µM, 24h preincubation with gametocytes, replicate R4, read-out: % inhibition male (individual replicates) R4): 80.2%; HitlevelM ([1]; 2µM): 4; inhibition at 2 µM ([2]; Plasmodium falciparum, PfDGFA at 2µM, 24h preincubation with gametocytes, average of replicates, read-out: Average inhibition female (%)): 0.5%; inhibition at 2 µM ([2]; Plasmodium falciparum, PfDGFA at 2µM, 24h preincubation with gametocytes, replicate R1, read-out: % inhibition female (individual replicates) R1): -10.9%; inhibition at 2 µM ([2]; Plasmodium falciparum, PfDGFA at 2µM, 24h preincubation with gametocytes, replicate R2, read-out: % inhibition female (individual replicates) R2): 1.1%; inhibition at 2 µM ([2]; Plasmodium falciparum, PfDGFA at 2µM, 24h preincubation with gametocytes, replicate R3, read-out: % inhibition female (individual replicates) R3): 15.6%; inhibition at 2 µM ([2]; Plasmodium falciparum, PfDGFA at 2µM, 24h preincubation with gametocytes, replicate R4, read-out: % inhibition female (individual replicates) R4): -3.9%; HitlevelF ([2]; 2µM): 0
CN(C)CC(O)COc1ccc(Nc2ncc([N+](=O)[O-])c(Nc3ccccc3O)n2)cc1.O=C(O)C(F)(F)F (centres unmarked) [TCMDC-141399]			2.69 µM	1.47	0.27						1830 nM										Average inhibition male (%) [1, 13]: 87.0%; % inhibition male (individual replicates) R1 [1, 14]: 80.9%; % inhibition male (individual replicates) R4 [1, 15]: 85.8%; HitlevelM ([1]; 2µM): 3; Average inhibition female (%) [2, 13]: 9.6%; % inhibition female (individual replicates) R1 [2, 14]: 0.18%; % inhibition female (individual replicates) R3 ([2]; PfDGFA at 2µM, 24h preincubation with gametocytes, replicate R3): 2.4%; % inhibition female (individual replicates) R4 [2, 15]: 9.1%; HitlevelF ([2]; 2µM): 0
Cc1ccc(Cn2nc(Cl)c(N3CCNCC3)cc2=O)cc1NC(=O)Nc1ccc(-c2ccccc2)cc1.O=C(O)C(F)(F)F [TCMDC-141698]			3.97 µM	3.32	3.54						1200 nM	96.8%	94.1%	94.5%	100.9%	53.1%	36.8%	40.3%	66.3%	1120 nM	
Cc1c(Cn2nc(Cl)c(N3CCNCC3)cc2=O)cccc1NC(=O)Nc1ccc(-c2ccccc2)cc1.O=C(O)C(F)(F)F [TCMDC-141699]			1.2 µM	2.05	2.15						580 nM	91.5%	87.4%	92.1%	92.9%	53.7%	31.7%	37.6%	62.1%	560 nM	
Cl.O=S(=O)(Nc1cc2c(cc1OCCCN1CCCCC1)CCNCC2)c1ccc(-c2ccc(Cl)cc2)cc1 [TCMDC-141753]			7.17 µM	5.89	1.62						1220 nM	98.2%	97.5%	95.7%	101.6%	56.2%	37.1%	44.2%	65.5%	4420 nM	
Cc1ccc(C)c(S(=O)(=O)NCC2CCN(Cc3ccc(O)cc3)CC2)c1.O=C(O)C(F)(F)F [TCMDC-141802]	1490 nM	> 10000 nM	81.55 µM	54.73	8.16	95.1%	95.4%	96.3%	93.6%	41.1%											inhibition at 2 µM [2, 9]: 46.9%; inhibition at 2 µM [2, 10]: 46.3%; inhibition at 2 µM [2, 11]: 38%; inhibition at 2 µM [2, 12]: 33.3%
Nc1nc(N)c2cc(NC(=O)c3ccc(Cl)c(Cl)c3)ccc2n1 [TCMDC-141982]			2.38 µM	2.06	1.06						1150 nM	98.2%	97.3%	98.4%	100.2%	81.8%	88.2%	90.4%	80.2%	2250 nM	

Now from value to compound, other results behind:

IC50 ([1]; Plasmodium falciparum)	IC50 ([2]; Plasmodium falciparum)	Structure (SMILES)	Tox50 (HepG2 cells)	Selectivity Ratio M [1]	Selectivity ratio F [2]	inhibition at 2 µM [1, 3]	inhibition at 2 µM [1, 4]	inhibition at 2 µM [1, 5]	inhibition at 2 µM [1, 7]	inhibition at 2 µM [2, 8]	IC50 [1]	Average inhibition male (%) [1, 16]	% inhibition male (individual replicates) R1 [1, 17]	% inhibition male (individual replicates) R3 [1, 18]	% inhibition male (individual replicates) R4 [1, 19]	Average inhibition female (%) [2, 16]	% inhibition female (individual replicates) R1 [2, 17]	% inhibition female (individual replicates) R3 [2, 18]	% inhibition female (individual replicates) R4 [2, 19]	IC50 [2]	further results
850 nM	430 nM	Cl.NCC1(c2nc(-c3ccc(Cl)c(O)c3)c(-c3ccncc3)[nH]2)CCCCC1 [TCMDC-141154]	9.89 µM	11.58	23.04	99.7%	95.4%	103%	105%	94.3%											inhibition at 2 µM [1, 6]: 95.7%; inhibition at 2 µM [2, 9]: 92.5%; inhibition at 2 µM [2, 10]: 91.3%; inhibition at 2 µM [2, 11]: 101%; inhibition at 2 µM [2, 12]: 92.3%
240 nM	260 nM	O=C(O)CCSSc1cccc[n+]1[O-] [TCMDC-141973]	30.9 µM	128.35	117.36	97.3%	98.9%	96.8%	92.9%	42.8%											inhibition at 2 µM [1, 6]: 100%; inhibition at 2 µM [2, 9]: 28.9%; inhibition at 2 µM [2, 10]: 62.6%; inhibition at 2 µM [2, 11]: 43.7%; inhibition at 2 µM [2, 12]: 35.9%
